Source: patent US4110327A, “2,3 Diketo-piperazinocarbonylamino alkanoic acids and derivatives” (Toyama Chemical Co., Ltd., priority 1974, dated 1978)
In brackets after ≈: the same amount, converted by molar mass.

Key:
Assay type in all cases: cell-based
Shigella sonnei = assay: MIC against clinical isolates; details: unit assumed
Description: (§1) The minimum inhibitory concentrations (MIC) was determined by the plate method disclosed in "Chemotherapy" (Japan), Vol. 16, (1968), pages 98 - 99. The culture medium used was a Heart infusion agar (pH 7.4). The number of the cells per plate used in the inoculum as 10^4 (10^6 cells/ml).
(§2) MIC was determined in the same manner as in the preceding paragraph (1).

Shigella flexneri = assay: MIC against clinical isolates; details: unit assumed
Description: as §1, §2

Salmonella typhi-murium = assay: MIC against clinical isolates; details: unit assumed
Salmonella typhi = assay: MIC against clinical isolates; details: unit assumed
[1] = test system: Staphylococcus aureus 209p; assay: MIC against standard strain, plate method; details: unit assumed
Procedure, shortened: (§3)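 Cells at 10^6 cells/ml were spotted to give 10^4 cells per plate on heart infusion agar adjusted to pH 7.4. The minimum inhibitory concentration was then read.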

[2] = test system: Pseudomonas aeruginosa I.F.O.; assay: MIC against standard strain, plate method; details: unit assumed
Procedure, shortened: as §3

Escherichia coli NIHJ = assay: MIC against standard strain, plate method; details: unit assumed
Procedure, shortened: as §3

Proteus vulgaris 3027 = assay: MIC against standard strain, plate method; details: Proteus vulgaris 3027, standard strain; unit assumed
Procedure, shortened: as §3

Klebsiella pneumoniae = assay: MIC against clinical isolates; details: unit assumed
Escherichia coli = assay: MIC against clinical isolates; details: unit assumed
Staphylococcus aureus = assay: MIC against clinical isolates; details: unit assumed
Pseudomonas aeruginosa = assay: MIC against clinical isolates; details: unit assumed
[3] = clinical isolate GN (number not given; Table 5-3)

Structure (SMILES)	MIC (Shigella sonnei; clinical isolate JS 11232) [µg/mL]	MIC (Shigella flexneri; clinical isolate JS 11215) [µg/mL]	MIC (Shigella flexneri; clinical isolate JS 11839) [µg/mL]	MIC (Salmonella typhi-murium; clinical isolate SL 858) [µg/mL]	MIC (Salmonella typhi-murium; clinical isolate SL 2136) [µg/mL]	MIC (Salmonella typhi; clinical isolate SL 819) [µg/mL]	MIC (Salmonella typhi; clinical isolate SL 2169) [µg/mL]	MIC [1] [µg/mL]	MIC [2] [µg/mL]	MIC (Escherichia coli NIHJ) [µg/mL]	MIC (Proteus vulgaris 3027) [µg/mL]	MIC (Klebsiella pneumoniae; clinical isolate GN 917) [µg/mL]	MIC (Klebsiella pneumoniae; clinical isolate GN 3850) [µg/mL]	MIC (Klebsiella pneumoniae; clinical isolate GN 4081) [µg/mL]	MIC (Klebsiella pneumoniae; clinical isolate GN 4117) [µg/mL]	MIC (Escherichia coli; clinical isolate GN 3465) [µg/mL]	MIC (Escherichia coli; clinical isolate K-2) [µg/mL]	MIC (Escherichia coli; clinical isolate K-3) [µg/mL]	MIC (Staphylococcus aureus; clinical isolate F-5) [µg/mL]	MIC (Staphylococcus aureus; clinical isolate MS 8619) [µg/mL]	further results
CC1(C)S[C@@H]2[C@H](NC(=O)C(c3ccccc3)S(=O)(=O)O)C(=O)N2[C@H]1C(=O)O (some centres unmarked) [Sodium Sulbenicillum, reference compound]	> 200	> 200	12.5	25	> 200	6.25	1.57														MIC (Shigella sonnei; clinical isolate JS 11755): > 200 µg/mL
CCCCN1CCN(C(=O)N[C@@H](C(=O)N[C@@H]2C(=O)N3[C@@H]2SC(C)(C)[C@@H]3C(=O)O)c2ccccc2)C(=O)C1 [compound 14]	25 (≈ 47 µM)	25 (≈ 47 µM)		1.57 (≈ 2.95 µM)	200 (≈ 376 µM)	6.25 (≈ 11.8 µM)	3.13 (≈ 5.89 µM)	< 1.57	25 (≈ 47 µM)	< 1.57	< 1.57	25 (≈ 47 µM)	12.5 (≈ 23.5 µM)	50 (≈ 94 µM)	50 (≈ 94 µM)	50 (≈ 94 µM)	12.5 (≈ 23.5 µM)	200 (≈ 376 µM)	200 (≈ 376 µM)	0.79 (≈ 1.49 µM)	MIC (Staphylococcus aureus; clinical isolate F-1): 12.5 µg/mL (≈ 23.5 µM); MIC (Pseudomonas aeruginosa; clinical isolate GN 82): 25 µg/mL (≈ 47 µM); MIC (Pseudomonas aeruginosa; clinical isolate GN 163): 25 µg/mL (≈ 47 µM); MIC (Pseudomonas aeruginosa; clinical isolate GN 221): 25 µg/mL (≈ 47 µM); MIC (Pseudomonas aeruginosa; clinical isolate GN 376): 50 µg/mL (≈ 94 µM); MIC (Pseudomonas aeruginosa; clinical isolate GN 383): 50 µg/mL (≈ 94 µM); MIC (Pseudomonas aeruginosa; clinical isolate GN 1035): 50 µg/mL (≈ 94 µM); MIC (Pseudomonas aeruginosa; clinical isolate GN 1091): 25 µg/mL (≈ 47 µM); MIC (Pseudomonas aeruginosa; clinical isolate GN 2565): 50 µg/mL (≈ 94 µM); MIC (Pseudomonas aeruginosa; clinical isolate GN 2987): 12.5 µg/mL (≈ 23.5 µM); MIC (Pseudomonas aeruginosa; [3]): 50 µg/mL (≈ 94 µM); MIC (Pseudomonas aeruginosa; clinical isolate S-1): 50 µg/mL (≈ 94 µM); MIC (Pseudomonas aeruginosa; clinical isolate S-2): 50 µg/mL (≈ 94 µM); MIC (Pseudomonas aeruginosa; clinical isolate S-3): 100 µg/mL (≈ 188 µM); MIC (Pseudomonas aeruginosa; clinical isolate S-4): 50 µg/mL (≈ 94 µM)
CC(=O)N1CCN(C(=O)N[C@@H](C(=O)N[C@@H]2C(=O)N3[C@@H]2SC(C)(C)[C@@H]3C(=O)O)c2ccccc2)C(=O)C1 [compound 1]	> 200	100 (≈ 193 µM)	3.13 (≈ 6.05 µM)	12.5 (≈ 24.2 µM)	> 200	6.25 (≈ 12.1 µM)	6.25 (≈ 12.1 µM)	< 1.57	25 (≈ 48.3 µM)	< 1.57	3.13 (≈ 6.05 µM)	25 (≈ 48.3 µM)	25 (≈ 48.3 µM)	> 200	200 (≈ 386 µM)	200 (≈ 386 µM)	25 (≈ 48.3 µM)	> 200	> 200	1.57 (≈ 3.03 µM)	MIC (Staphylococcus aureus; clinical isolate F-2): 3.13 µg/mL (≈ 6.05 µM); MIC (Staphylococcus aureus; clinical isolate MS 8596): 3.13 µg/mL (≈ 6.05 µM); MIC (Staphylococcus aureus; clinical isolate MS 8684): 3.13 µg/mL (≈ 6.05 µM); MIC (Staphylococcus aureus; clinical isolate MS 8713): 3.13 µg/mL (≈ 6.05 µM); MIC (Pseudomonas aeruginosa; clinical isolate GN 82): 25 µg/mL (≈ 48.3 µM); MIC (Pseudomonas aeruginosa; clinical isolate GN 163): 25 µg/mL (≈ 48.3 µM); MIC (Pseudomonas aeruginosa; clinical isolate GN 221): 25 µg/mL (≈ 48.3 µM); MIC (Pseudomonas aeruginosa; clinical isolate GN 376): 25 µg/mL (≈ 48.3 µM); MIC (Pseudomonas aeruginosa; clinical isolate GN 383): 50 µg/mL (≈ 96.6 µM); MIC (Pseudomonas aeruginosa; clinical isolate GN 1035): 100 µg/mL (≈ 193 µM); MIC (Pseudomonas aeruginosa; clinical isolate GN 1091): 25 µg/mL (≈ 48.3 µM); MIC (Pseudomonas aeruginosa; clinical isolate GN 2565): 50 µg/mL (≈ 96.6 µM); MIC (Pseudomonas aeruginosa; clinical isolate GN 2987): 25 µg/mL (≈ 48.3 µM); MIC (Pseudomonas aeruginosa; [3]): 25 µg/mL (≈ 48.3 µM); MIC (Pseudomonas aeruginosa; clinical isolate S-1): 50 µg/mL (≈ 96.6 µM); MIC (Pseudomonas aeruginosa; clinical isolate S-2): 100 µg/mL (≈ 193 µM); MIC (Pseudomonas aeruginosa; clinical isolate S-3): 50 µg/mL (≈ 96.6 µM); MIC (Pseudomonas aeruginosa; clinical isolate S-4): 50 µg/mL (≈ 96.6 µM)
